In a compilation of properties of binary mixtures (doi:10.1021/acs.jced.0c00588):

Assay: xn = mol fraction of the nth substance listed
Conditions: 102 kPa

O=C(O)C(F)(F)C(F)(F)C(F)(F)C(F)(F)F + CC[n+]1ccn(C)c1.[Cl-]
viscosity [mPa·s]
Conditions | x2 = 0.3346 | x2 = 0.5026 | x2 = 0.6636
293.15 K | 35.2 | 92.1 | –
298.15 K | 29 | 72.1 | 213.4
303.15 K | – | 57.4 | 158.1
308.15 K | 20.4 | 46.4 | 119.8
313.15 K | – | 38.2 | 92.7
318.15 K | 14.99 | – | 73
323.15 K | 13.02 | – | 58.4
328.15 K | 11.4 | 22.58 | 47.5
333.15 K | 10.04 | – | –
338.15 K | – | – | 32.6
343.15 K | 7.94 | 14.53 | 27.5
348.15 K | 7.13 | – | 23.56
353.15 K | – | 11.25 | 20.29
